In patent US10064873B2, “Compounds and compositions for treating HIV with derivatives of Betulin” (GlaxoSmithKline LLC, priority 2011, dated 2018):

System: HIV NL4-3 wt
Assay: MT4 antiviral assay, NL4-3 strain wild type
Type: cell-based, HIV-1
Details: Human immunodeficiency virus 1, NL43, MT4, read-out: EC50 NL4-3 wt (nM)

**Q.** `CC(=O)O[C@H](CNCc1cccc(Cl)c1)[C@@]12CC[C@]3(C)[C@H](CC[C@@H]4[C@@]5(C)CC[C@H](OC(=O)CC(C)(C)C(=O)O)C(C)(C)[C@@H]5CC[C@]43C)C1=C(C(C)C)C(=O)C2` [Example 39, 4-(((3aR,5aR,5bR,7aR,9S,11aR,11bR,13aS)-3a-((S)-1-Acetoxy-2-((3-chlorobenzyl)amino)ethyl)-1-isopropyl-5a,5b,8,8,11a-pentamethyl-2-oxo-3,3a,4,5,5a,5b,6,7,7a,8,9,10,11,11a,11b,12,13,13a-octadecahydro-2H-cyclopenta[a]chrysen-9-yl)oxy)-2,2-dimethyl-4-oxobutanoic acid] was tested. Which EC50 did it give?
**A.** 6.6 nM

**Q.** With `CC(=O)O[C@@H](CNCc1cccc(Cl)c1)[C@@]12CC[C@]3(C)[C@H](CC[C@@H]4[C@@]5(C)CC[C@H](OC(=O)CC(C)(C)C(=O)O)C(C)(C)[C@@H]5CC[C@]43C)C1=C(C(C)C)C(=O)C2` [Example 40, 4-(((3aR,5aR,5bR,7aR,9S,11aR,11bR,13aS)-3a-((R)-1-Acetoxy-2-((3-chlorobenzyl)amino)ethyl)-1-isopropyl-5a,5b,8,8,11a-pentamethyl-2-oxo-3,3a,4,5,5a,5b,6,7,7a,8,9,10,11,11a,11b,12,13,13a-octadecahydro-2H-cyclopenta[a]chrysen-9-yl)oxy)-2,2-dimethyl-4-oxobutanoic acid] as the molecule, how does the EC50 read?
**A.** 11.1 nM

**Q.** Which EC50 does the source give for `CCN(Cc1ccccc1Cl)C[C@H](O)[C@@]12CC[C@]3(C)[C@H](CC[C@@H]4[C@@]5(C)CC[C@H](OC(=O)CC(C)(C)C(=O)O)C(C)(C)[C@@H]5CC[C@]43C)C1=C(C(C)C)C(=O)C2` [Example 49, 4-(((3aR,5aR,5bR,7aR,9S,11aR,11bR,13aS)-3a-((R)-2-((2-chlorobenzyl)(ethyl)amino)-1-hydroxyethyl)-1-isopropyl-5a,5b,8,8,11a-pentamethyl-2-oxo-3,3a,4,5,5a,5b,6,7,7a,8,9,10,11,11a,11b,12,13,13a-octadecahydro-2H-cyclopenta[a]chrysen-9-yl)oxy)-2,2-dimethyl-4-oxobutanoic acid] here?
**A.** 21.8 nM

**Q.** `CC(C)C1=C2[C@H]3CC[C@@H]4[C@@]5(C)CC[C@H](OC(=O)CC(C)(C)C(=O)O)C(C)(C)[C@@H]5CC[C@@]4(C)[C@]3(C)CC[C@@]2([C@H]2CN(C3(c4ncc(Cl)cn4)CC3)C(=O)O2)CC1=O` [Example 60, 4-(((3aR,5aR,5bR,7aR,9S,11aR,11bR,13aS)-3a-((S)-3-(1-(5-chloropyrimidin-2-yl)cyclopropyl)-2-oxooxazolidin-5-yl)-1-isopropyl-5a,5b,8,8,11a-pentamethyl-2-oxo-3,3a,4,5,5a,5b,6,7,7a,8,9,10,11,11a,11b,12,13,13a-octadecahydro-2H-cyclopenta[a]chrysen-9-yl)oxy)-2,2-dimethyl-4-oxobutanoic acid] was tested. Which EC50 did it give?
**A.** 60.2 nM

**Q.** With `CC(C)C1=C2[C@H]3CC[C@@H]4[C@@]5(C)CC[C@H](OC(=O)CC(C)(C)C(=O)O)C(C)(C)[C@@H]5CC[C@@]4(C)[C@]3(C)CC[C@@]2([C@@H]2CN(C3(c4ncc(Cl)cn4)CC3)C(=O)O2)CC1=O` [Example 61, 4-(((3aR,5aR,5bR,7aR,9S,11aR,11bR,13aS)-3a-((R)-3-(1-(5-chloropyrimidin-2-yl)cyclopropyl)-2-oxooxazolidin-5-yl)-1-isopropyl-5a,5b,8,8,11a-pentamethyl-2-oxo-3,3a,4,5,5a,5b,6,7,7a,8,9,10,11,11a,11b,12,13,13a-octadecahydro-2H-cyclopenta[a]chrysen-9-yl)oxy)-2,2-dimethyl-4-oxobutanoic acid] as the molecule, how does the EC50 read?
**A.** 130 nM

Same assay, conditions: Human immunodeficiency virus 1, NL43; MT4 cells; read-out: EC50 NL4-3 wt

**Q.** With `CC(=O)N(Cc1ccc(Cl)cc1)C[C@@H](O)[C@@]12CC[C@]3(C)[C@H](CC[C@@H]4[C@@]5(C)CC[C@H](OC(=O)CC(C)(C)C(=O)O)C(C)(C)[C@@H]5CC[C@]43C)C1=C(C(C)C)C(=O)C2` [Example 33, 4-(((3aR,5aR,5bR,7aR,9S,11aR,11bR,13aS)-3a-((S)-2-(N-(4-Chlorobenzyl)acetamido)-1-hydroxyethyl)-1-isopropyl-5a,5b,8,8,11a-pentamethyl-2-oxo-3,3a,4,5,5a,5b,6,7,7a,8,9,10,11,11a,11b,12,13,13a-octadecahydro-2H-cyclopenta[a]chrysen-9-yl)oxy)-2,2-dimethyl-4-oxobutanoic acid] as the molecule, how does the EC50 read?
**A.** 5.3 nM

**Q.** With `CC(=O)N(Cc1ccc(Cl)cc1)C[C@H](O)[C@@]12CC[C@]3(C)[C@H](CC[C@@H]4[C@@]5(C)CC[C@H](OC(=O)CC(C)(C)C(=O)O)C(C)(C)[C@@H]5CC[C@]43C)C1=C(C(C)C)C(=O)C2` [Example 34, 4-(((3aR,5aR,5bR,7aR,9S,11aR,11bR,13aS)-3a-((R)-2-(N-(4-Chlorobenzyl)acetamido)-1-hydroxyethyl)-1-isopropyl-5a,5b,8,8,11a-pentamethyl-2-oxo-3,3a,4,5,5a,5b,6,7,7a,8,9,10,11,11a,11b,12,13,13a-octadecahydro-2H-cyclopenta[a]chrysen-9-yl)oxy)-2,2-dimethyl-4-oxobutanoic acid] as the molecule, how does the EC50 read?
**A.** 7.1 nM

**Q.** `CC(=O)N(Cc1ccccc1Cl)C[C@@H](O)[C@@]12CC[C@]3(C)[C@H](CC[C@@H]4[C@@]5(C)CC[C@H](OC(=O)CC(C)(C)C(=O)O)C(C)(C)[C@@H]5CC[C@]43C)C1=C(C(C)C)C(=O)C2` [Example 35, 4-(((3aR,5aR,5bR,7aR,9S,11aR,11bR,13aS)-3a-((S)-2-(N-(2-Chlorobenzyl)acetamido)-1-hydroxyethyl)-1-isopropyl-5a,5b,8,8,11a-pentamethyl-2-oxo-3,3a,4,5,5a,5b,6,7,7a,8,9,10,11,11a,11b,12,13,13a-octadecahydro-2H-cyclopenta[a]chrysen-9-yl)oxy)-2,2-dimethyl-4-oxobutanoic acid] was tested. Which EC50 did it give?
**A.** 4.2 nM

**Q.** `CC(=O)O[C@H](CN(CCN(C)C)Cc1ccccc1Cl)[C@@]12CC[C@]3(C)[C@H](CC[C@@H]4[C@@]5(C)CC[C@H](OC(=O)CC(C)(C)C(=O)O)C(C)(C)[C@@H]5CC[C@]43C)C1=C(C(C)C)C(=O)C2` [Example 36, 4-(((3aR,5aR,5bR,7aR,9S,11aR,11bR,13aS)-3a-((S)-1-Acetoxy-2-((2-chlorobenzyl)(2-(dimethylamino)ethyl)amino)ethyl)-1-isopropyl-5a,5b,8,8,11a-pentamethyl-2-oxo-3,3a,4,5,5a,5b,6,7,7a,8,9,10,11,11a,11b,12,13,13a-octadecahydro-2H-cyclopenta[a]chrysen-9-yl)oxy)-2,2-dimethyl-4-oxobutanoic acid] was tested. Which EC50 did it give?
**A.** 4 nM

**Q.** For `CC(C)C1=C2[C@H]3CC[C@@H]4[C@@]5(C)CC[C@H](OC(=O)CC(C)(C)C(=O)O)C(C)(C)[C@@H]5CC[C@@]4(C)[C@]3(C)CC[C@@]2([C@H](O)CN(CCN(C)C)Cc2cccc(Cl)c2)CC1=O` [Example 44, 4-(((3aR,5aR,5bR,7aR,9S,11aR,11bR,13aS)-3a-((S)-2-((3-Chlorobenzyl)(2-(dimethylamino)ethyl)amino)-1-hydroxyethyl)-1-isopropyl-5a,5b,8,8,11a-pentamethyl-2-oxo-3,3a,4,5,5a,5b,6,7,7a,8,9,10,11,11a,11b,12,13,13a-octadecahydro-2H-cyclopenta[a]chrysen-9-yl)oxy)-2,2-dimethyl-4-oxobutanoic acid], which EC50 is on record?
**A.** 1.8 nM

**Q.** For `CC(C)C1=C2[C@H]3CC[C@@H]4[C@@]5(C)CC[C@H](OC(=O)CC(C)(C)C(=O)O)C(C)(C)[C@@H]5CC[C@@]4(C)[C@]3(C)CC[C@@]2([C@@H](O)CN(CCN(C)C)Cc2cccc(Cl)c2)CC1=O` [Example 45, 4-(((3aR,5aR,5bR,7aR,9S,11aR,11bR,13aS)-3a-((R)-2-((3-Chlorobenzyl)(2-(dimethylamino)ethyl)amino)-1-hydroxyethyl)-1-isopropyl-5a,5b,8,8,11a-pentamethyl-2-oxo-3,3a,4,5,5a,5b,6,7,7a,8,9,10,11,11a,11b,12,13,13a-octadecahydro-2H-cyclopenta[a]chrysen-9-yl)oxy)-2,2-dimethyl-4-oxobutanoic acid], which EC50 is on record?
**A.** 1.9 nM

**Q.** For `CC(=O)N(Cc1cccc(Cl)c1)C[C@@H](O)[C@@]12CC[C@]3(C)[C@H](CC[C@@H]4[C@@]5(C)CC[C@H](OC(=O)CC(C)(C)C(=O)O)C(C)(C)[C@@H]5CC[C@]43C)C1=C(C(C)C)C(=O)C2` [Example 47, 4-(((3aR,5aR,5bR,7aR,9S,11aR,11bR,13aS)-3a-((S)-2-(N-(3-chlorobenzyl)acetamido)-1-hydroxyethyl)-1-isopropyl-5a,5b,8,8,11a-pentamethyl-2-oxo-3,3a,4,5,5a,5b,6,7,7a,8,9,10,11,11a,11b,12,13,13a-octadecahydro-2H-cyclopenta[a]chrysen-9-yl)oxy)-2,2-dimethyl-4-oxobutanoic acid], which EC50 is on record?
**A.** 7.7 nM

**Q.** Which EC50 does the source give for `CC(C)C1=C2[C@H]3CC[C@@H]4[C@@]5(C)CC[C@H](OC(=O)CC(C)(C)C(=O)O)C(C)(C)[C@@H]5CC[C@@]4(C)[C@]3(C)CC[C@@]2([C@@H](O)CN(CCN(C)C)Cc2ccccc2Cl)CC1=O` [Example 50, 4-(((3aR,5aR,5bR,7aR,9S,11aR,11bR,13aS)-3a-((R)-2-((2-chlorobenzyl)(2-(dimethylamino)ethyl)amino)-1-hydroxyethyl)-1-isopropyl-5a,5b,8,8,11a-pentamethyl-2-oxo-3,3a,4,5,5a,5b,6,7,7a,8,9,10,11,11a,11b,12,13,13a-octadecahydro-2H-cyclopenta[a]chrysen-9-yl)oxy)-2,2-dimethyl-4-oxobutanoic acid] here?
**A.** 1.1 nM

**Q.** `CC(=O)O[C@@H](CNCc1ccccc1)[C@@]12CC[C@]3(C)[C@H](CC[C@@H]4[C@@]5(C)CC[C@H](OC(=O)CC(C)(C)C(=O)O)C(C)(C)[C@@H]5CC[C@]43C)C1=C(C(C)C)C(=O)C2` [Example 52, 4-(((3aR,5aR,5bR,7aR,9S,11aR,11bR,13aS)-3a-((R)-1-Acetoxy-2-(benzylamino)ethyl)-1-isopropyl-5a,5b,8,8,11a-pentamethyl-2-oxo-3,3a,4,5,5a,5b,6,7,7a,8,9,10,11,11a,11b,12,13,13a-octadecahydro-2H-cyclopenta[a]chrysen-9-yl)oxy)-2,2-dimethyl-4-oxobutanoic acid] was tested. Which EC50 did it give?
**A.** 4.6 nM
